“And” between values parts separate entries of the source, which are not always exact repeats. Equal values may be shown once. “Also recorded” adds a separate entry of the source.
Key:
Format in all cases: cell-based, Staphylococcus aureus
MRSA [1] = assay: MRSA CFU count with methicillin after sub-lethal NIMELS laser (Example X); conditions: methicillin at resistant MIC just below effectiveness level
From the text: The following illustrates the general antibacterial methods according to the invention, using a MRSA model for the in vitro Experiments V and VIII-XII.
a) μ1 is sub-lethal dosimetry from the NIMEL laser system on MRSA as a control and;

MRSA [2] = assay: MRSA/antimicrobial potentiation Experiment 1: CFU with or without 30 μg/ml methicillin, laser dosages A1 to H1; conditions: for fewer CFU in the laser treated samples compared to the untreated controls: methicillin plates (30 μg/ml)
Method: Four separate experiments have been performed.
Eight different laser dosages were used to treat a saline-suspension of logarithmically growing MRSA, labeled A1 to H1.
(§1) The treated and a control untreated suspension were diluted and plated in triplicate on trypic soy agar with or without 30 μg/ml methicillin.
(§2) After 24 hrs of growth at 37° C. colonies were counted.
CFU (colony forming units) were compared between the plates with and without methicillin for both control (untreated) and treated MRSA.

MRSA [3] = assay: MRSA/antimicrobial potentiation Experiment 3: CFU with or without 30 μg/ml methicillin, laser dosages A3 to H3; conditions: for Fold increase in methicillin sensitivity: 30 μg/ml methicillin
Method: Eight different laser dosages based on an effective dose established in experiments 1 and 2 and previously were used to treat a saline-suspension of logarithmically growing MRSA, labeled A3 to H3.
[…] After 24 hrs of growth at 37° C. colonies were counted.

MRSA [4] = assay: MRSA/antimicrobial potentiation Experiment 2: CFU with or without 30 μg/ml methicillin, laser dosages A2 to H2; conditions: for Fold increase in methicillin sensitivity: 30 μg/ml methicillin
Method: Eight different laser dosages based on an effective dose established in experiment 1 and previously were used to treat a saline-suspension of logarithmically growing MRSA, labeled A2 to H2.
as §1, §2

MRSA [5] = assay: MRSA/antimicrobial potentiation Experiment 4: CFU with or without methicillin, penicillin G or erythromycin, groups A4 to F4; conditions: for CFU: agar with 30 μg/ml methicillin
From the text: Two different laser dosages based on an effective dose established in previous experiments were used to treat a saline-suspension of logarithmically growing MRSA, labeled A4 to F4.

## COc1cccc(OC)c1C(=O)N[C@@H]1C(=O)N2[C@@H]1SC(C)(C)[C@@H]2C(=O)O [Methicillin]
MRSA [1]
  effect of methicillin after sub-lethal NIMELS irradiation on growth of MRSA colonies (in words): potentiated by sub-lethal NIMELS dosimetry; also recorded: produces a deleterious effect after sub-lethal NIMEL irradiation on normal growth of MRSA colonies
MRSA [2]; Exp (laser treated), laser dosage F1, with 30 μg/ml methicillin
  AVG (CFU): 197 CFU
MRSA [2]; condition A1
  fewer CFU in the laser treated samples compared to the untreated controls: 30%
MRSA [2]; condition B1
  fewer CFU in the laser treated samples compared to the untreated controls: 33%
MRSA [2]; condition C1
  fewer CFU in the laser treated samples compared to the untreated controls: 67%
MRSA [2]; treatments performed on sample A1, B1 and C1
  sensitization of MRSA by laser treatment (in words): sensitized the MRSA to the effects of methicillin
MRSA [3]; B3, Exp (laser treated), plates with 30 μg/ml methicillin
  CFU AVG: 19
MRSA [3]; CFU on plates with and without 30 μg/ml methicillin, groups A3 to H3
  effectiveness of methicillin in laser treated samples (in words): significant increase in the effectiveness of methicillin in all laser treated samples
MRSA [3]; D3, Cont (untreated suspension), plates with 30 μg/ml methicillin, single plates
  CFU: 58
MRSA [3]; D3, Exp (laser treated), plates with 30 μg/ml methicillin
  CFU AVG: 3.6
MRSA [3]; F3, Exp (laser treated), plates with 30 μg/ml methicillin
  CFU AVG: 9.8
MRSA [3]; G3, Exp (laser treated), plates with 30 μg/ml methicillin
  CFU AVG: 8.4
MRSA [3]; H3, Exp (laser treated), plates with 30 μg/ml methicillin
  CFU AVG: 8.4
MRSA [3]; laser dosage grouping A3
  Fold increase in methicillin sensitivity: 1.98
MRSA [3]; laser dosage grouping B3
  Fold increase in methicillin sensitivity: 1.62
MRSA [3]; laser dosage grouping C3
  Fold increase in methicillin sensitivity: 1.91
MRSA [3]; laser dosage grouping D3
  Fold increase in methicillin sensitivity: 2.59
MRSA [3]; laser dosage grouping E3
  Fold increase in methicillin sensitivity: 2.09
MRSA [3]; laser dosage grouping F3
  Fold increase in methicillin sensitivity: 2.08
MRSA [3]; laser dosage grouping G3
  Fold increase in methicillin sensitivity: 3.16
MRSA [3]; laser dosage grouping H3
  Fold increase in methicillin sensitivity: 2.97
MRSA [4]; A2, Exp (laser treated), plates with 30 μg/ml methicillin
  CFU AVG: 41
MRSA [4]; CFU on plates with and without 30 μg/ml methicillin, groups A2 to H2
  effectiveness of methicillin in laser treated samples (in words): significant increase in the effectiveness of methicillin in all laser treated samples with the exception of A2 and B2
MRSA [4]; D2, Cont (untreated suspension), plates with 30 μg/ml methicillin
  CFU AVG: 52
MRSA [4]; D2, Exp (laser treated), plates with 30 μg/ml methicillin
  CFU AVG: 2.3
MRSA [4]; E2, Exp (laser treated), plates with 30 μg/ml methicillin
  CFU AVG: 2.7
MRSA [4]; F2, Cont (untreated suspension), plates with 30 μg/ml methicillin
  CFU AVG: 71
MRSA [4]; G2, Exp (laser treated), plates with 30 μg/ml methicillin
  CFU AVG: 8.3
MRSA [4]; H2, Cont (untreated suspension), plates with 30 μg/ml methicillin, single plates
  CFU: 82
MRSA [4]; laser dosage grouping A2
  Fold increase in methicillin sensitivity: 0.84
MRSA [4]; laser dosage grouping B2
  Fold increase in methicillin sensitivity: 0.91
MRSA [4]; laser dosage grouping C2
  Fold increase in methicillin sensitivity: 3.20
MRSA [4]; laser dosage grouping D2
  Fold increase in methicillin sensitivity: 2.44
MRSA [4]; laser dosage grouping E2
  Fold increase in methicillin sensitivity: 4.33
MRSA [4]; laser dosage grouping F2
  Fold increase in methicillin sensitivity: 2.13
MRSA [4]; laser dosage grouping G2
  Fold increase in methicillin sensitivity: 3.47
MRSA [4]; laser dosage grouping H2
  Fold increase in methicillin sensitivity: 1.62
MRSA [5]; Group A4, Cont (no laser), replicate plates 1-5, 24 hrs 37° C.
  CFU: 97 CFU and 90 CFU
MRSA [5]; Group A4, Exp (laser treated), replicate plates 1-5
  CFU: 37 CFU and 33 CFU and 36 CFU (2×) and 39 CFU
MRSA [5]; Group B4, Exp (laser treated), replicate plates 1-5
  CFU: 46 CFU (2×) and 34 CFU and 42 CFU and 44 CFU
MRSA [5]; sub-lethal NIMELS dosimetry, bar chart figure
  synergy or potentiation with NIMELS in growth inhibition of MRSA colonies (in words): synergistic effects; also recorded: potentiated by sub-lethal NIMELS dosimetry
MRSA [5]; temperature levels not lethal to the organism
  reversal of MRSA resistance in vitro by dual wavelength NOVEON laser (in words): successful reversal of MRSA resistance
